# Results as given in paper PMC5361811, “Inhibition of human endogenous retrovirus-K by antiretroviral drugs” (Retrovirology, 2017).
# Tested on: T1, HERV-K protease
# T1 construct: gene pro; retroviral aspartic protease of consensus HERV-K genome (from Gag-Pro-Pol polyprotein; synthetic, plasmid pCD-HK/Rev), acting in transfected HeLa or 293 cells and virions; homodimer by homology
# Assay: virus production in transfected HeLa cells, RT activity in supernatant by PERT
# Format: cell-based
# Details: Homo sapiens, read-out: HERV-K IC50 (μM)
# Description: virus production in transfected HeLa cells, RT activity in supernatant by PERT on HERV-K protease
row,SMILES,IC50
1,CC(C)CN(C[C@@H](O)[C@H](Cc1ccccc1)NC(=O)O[C@H]1CO[C@H]2OCC[C@H]21)S(=O)(=O)c1ccc(N)cc1 [Darunavir],0.029 µM
2,Cc1cccc(C)c1OCC(=O)N[C@@H](Cc1ccccc1)[C@@H](O)C[C@H](Cc1ccccc1)NC(=O)[C@H](C(C)C)N1CCCNC1=O [Lopinavir],0.034 µM
